{
  "source": "paper PMC10284601",
  "about": "“Evolution of an extreme hemoglobin phenotype contributed to the sub-Arctic specialization of extinct Steller’s sea cows” (eLife, 2023)",
  "assay_in_all_cases": "shift of O2 affinity (P50), thin-film O2 equilibrium curves",
  "conditions_in_all_cases": "allosteric effector of O2 binding; 0.5 mM DPG (twofold molar excess over tetramer) vs stripped Hb; no Cl-; 0.1 M HEPES, pH 7.2, 37 °C",
  "key": {"[1]": {"biological_target": "T1, Steller's sea cow Hb (H. gigas HbA; α2β/δ2) (Hydrodamalis gigas, UniProt A0A481WR13)", "T1 construct": "gene HBB; recombinant tetramer, E. coli JM109 (DE3) with co-expressed methionine aminopeptidase, codon-optimised, ion exchange purified; natural β/δ82Asn; with Hemoglobin subunit alpha", "T1 sequence (A0A481WR13 entry or part of it)": "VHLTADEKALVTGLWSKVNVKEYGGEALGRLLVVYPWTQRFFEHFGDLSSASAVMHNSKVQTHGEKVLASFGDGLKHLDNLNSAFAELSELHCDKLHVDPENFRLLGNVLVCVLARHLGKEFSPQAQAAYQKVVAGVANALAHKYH", "T1 sequence (A0A481WNT7 entry or part of it, further chain)": "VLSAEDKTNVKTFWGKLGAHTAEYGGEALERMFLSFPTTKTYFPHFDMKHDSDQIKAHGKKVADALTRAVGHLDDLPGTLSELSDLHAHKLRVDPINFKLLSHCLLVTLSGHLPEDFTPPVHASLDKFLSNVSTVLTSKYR"}, "[2]": {"biological_target": "T2, Steller's sea cow Hb (H. gigas HbA; α2β/δ2) (Hydrodamalis gigas, UniProt A0A481WR13, N83K)", "T2 construct": "gene HBB; recombinant tetramer, E. coli JM109 (DE3) with co-expressed methionine aminopeptidase, codon-optimised, ion exchange purified; natural β/δ82Asn; with Hemoglobin subunit alpha", "T2 sequence (A0A481WNT7 entry or part of it, stated change not applied)": "as the sequence (A0A481WNT7 entry or part of it, further chain) above", "T2 sequence (A0A481WR13 entry or part of it N83K)": "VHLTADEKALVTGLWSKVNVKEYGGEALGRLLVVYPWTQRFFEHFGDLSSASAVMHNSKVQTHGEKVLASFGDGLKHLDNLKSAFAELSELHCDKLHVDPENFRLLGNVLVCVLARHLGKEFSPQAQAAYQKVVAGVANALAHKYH"}, "dugong Hb (HbA; α2β/δ2)": {"biological_target": "T3, dugong Hb (HbA; α2β/δ2) (Dugong dugon, UniProt A0A481WQB0)", "T3 construct": "gene HBB; recombinant tetramer, E. coli JM109 (DE3) with co-expressed methionine aminopeptidase, codon-optimised, ion exchange purified; with Hemoglobin subunit alpha", "T3 sequence (A0A481WNF4 entry or part of it)": "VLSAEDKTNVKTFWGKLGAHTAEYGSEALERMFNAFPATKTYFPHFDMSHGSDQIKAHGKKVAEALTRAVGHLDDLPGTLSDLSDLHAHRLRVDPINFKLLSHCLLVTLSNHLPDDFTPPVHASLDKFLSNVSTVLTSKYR", "T3 sequence (A0A481WQB0 entry or part of it)": "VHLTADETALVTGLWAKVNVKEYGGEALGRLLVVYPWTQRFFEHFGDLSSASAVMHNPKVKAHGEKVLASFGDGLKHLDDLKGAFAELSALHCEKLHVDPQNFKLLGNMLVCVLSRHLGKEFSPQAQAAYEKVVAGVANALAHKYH"}},
  "data": [
    {"smiles": "O=C(O)[C@@H](COP(=O)(O)O)OP(=O)(O)O", "note": "[2,3-diphosphoglycerate]", "values": [
      {"measurement": "ΔlogP50(DPG-stripped)", "setting": "[1]", "value": "0.02 log units (P50 in mm Hg)"},
      {"measurement": "ΔlogP50(DPG-stripped)", "setting": "[2]", "value": "reversion to the ancestral state restores the DPG effect to the same level"},
      {"measurement": "ΔlogP50(DPG-stripped)", "setting": "dugong Hb (HbA; α2β/δ2)", "value": "0.30 log units (P50 in mm Hg)"}
    ]}
  ]
}
